For orientation: Kd means the concentration at which binding is half-saturated.

The values that follow come from BindingDB's records for doi:10.1016/j.bmcl.2019.02.028 (Indiana University School of Medicine, 2019).

The experiment concerns the target Chaperonin GroEL (Escherichia coli (strain K12), UniProt P0A6F5). Nature of the experiment: Binding affinity to Escherichia coli GroEL expressed in Escherichia coliDH5alpha by ITC assay.

Chain of Chaperonin GroEL (P0A6F5 2-548 limits assumed): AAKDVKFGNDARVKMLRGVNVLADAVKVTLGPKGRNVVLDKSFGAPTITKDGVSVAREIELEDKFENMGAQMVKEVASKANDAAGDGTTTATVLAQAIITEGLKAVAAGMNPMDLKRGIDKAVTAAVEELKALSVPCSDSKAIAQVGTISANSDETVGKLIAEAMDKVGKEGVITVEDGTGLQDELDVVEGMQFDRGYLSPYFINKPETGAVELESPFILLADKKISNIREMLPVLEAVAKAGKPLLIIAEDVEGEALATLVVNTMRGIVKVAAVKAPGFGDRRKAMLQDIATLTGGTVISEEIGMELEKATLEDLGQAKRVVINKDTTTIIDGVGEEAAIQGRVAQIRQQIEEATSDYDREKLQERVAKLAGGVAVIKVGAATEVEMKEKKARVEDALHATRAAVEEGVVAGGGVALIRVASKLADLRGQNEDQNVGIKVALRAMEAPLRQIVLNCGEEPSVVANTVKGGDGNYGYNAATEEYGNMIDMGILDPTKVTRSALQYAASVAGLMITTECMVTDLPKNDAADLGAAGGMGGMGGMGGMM

On to `CC1=CCC(C(=O)/N=C2\CC=C(S(=O)(=O)O)c3cc(S(=O)(=O)O)cc(S(=O)(=O)O)c32)=C/C1=N/C(=O)C1=CC=C/C(=N\C(=O)/N=C2\C=CC=C(C(=O)/N=C3/CC(C(=O)/N=C4\CC=C(S(=O)(=O)O)c5cc(S(=O)(=O)O)cc(S(=O)(=O)O)c54)=CC=C3C)C2)C1`, for which the equilibrium dissociation constant (Kd) is 9.8 µM.
